Test results reported in patent US12043600B2, “Microbiocidal compounds” (SYNGENTA CROP PROTECTION AG, priority 2018, dated 2024).

How the values were obtained:
[1] = tested on: Botryotinia fuckeliana (Botrytis cinerea); assay: Botryotinia fuckeliana (Botrytis cinerea)/Liquid Culture (Gray Mould); format: cell-based; settings: liquid culture, compared to untreated control
Method: Conidia of the fungus from cryogenic storage are directly mixed into nutrient broth (Vogels broth). After placing a (DMSO) solution of test compound into a microtiter plate (96-well format), the nutrient broth containing the fungal spores is added.

[2] = tested on: Glomerella lagenarium (Colletotrichum lagenarium); assay: Glomerella lagenarium (Colletotrichum lagenarium)/Liquid Culture (Anthracnose); format: cell-based; settings: Colletotrichum orbiculare, liquid culture, compared to untreated control
[3] = tested on: Phaeosphaeria nodorum (Septoria nodorum); assay: Phaeosphaeria nodorum (Septoria nodorum)/Wheat/Leaf Disc Preventative (Glume Blotch); format: in vivo; settings: Parastagonospora nodorum, foliar, wheat leaf disc preventative, compared to untreated control
Procedure, shortened: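 Preventative test: compound spray first, then spore inoculation after 2 days on cv. Kanzler wheat leaf segments. Incubation in a climate cabinet at 20 °C and 75% rh under a 12 h light/12 h dark cycle. Activity rated as % control relative to untreated discs at 5–7 days post-application.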

[4] = tested on: Monographella nivalis (Microdochium nivale); assay: Monographella nivalis (Microdochium nivale)/Liquid Culture (Foot Rot Cereals); format: cell-based; settings: liquid culture, compared to untreated control
Procedure, shortened: (§1)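 Liquid-culture format using potato dextrose broth inoculated directly with cryopreserved conidia, dosed with compound from a DMSO solution.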

[5] = tested on: Mycosphaerella arachidis (Cercospora arachidicola); assay: Mycosphaerella arachidis (Cercospora arachidicola)/Liquid Culture (Early Leaf Spot); format: cell-based; settings: liquid culture, compared to untreated control
Procedure, shortened: as §1

Phytophthora infestans = assay: whole plant or invertebrate; format: in vivo; settings: in Solanum lycopersicum, foliar, read-out: control of Phytophthora infestans
Plasmopara viticola = assay: whole plant or invertebrate; format: in vivo; settings: foliar, read-out: control of Plasmopara viticola
[6] = tested on: Puccinia recondita f. sp. tritici; assay: Puccinia recondita f. sp. tritici/Wheat/Leaf Disc Curative (Brown Rust); format: in vivo; settings: foliar, wheat leaf disc curative, compared to untreated control
Procedure, shortened: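 Formulated compound, diluted in water, is applied to inoculated wheat cv. Kanzler leaf segments on agar one day post-inoculation (pre-incubation dark, 19° C, 75% rh). After 6-8 days at 19° C, 75% rh and 12 h/12 h light, activity is rated as percent disease control relative to untreated segments.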

[7] = tested on: Puccinia recondita f. sp. tritici; assay: Puccinia recondita f. sp. tritici/Wheat/Leaf Disc Preventative (Brown Rust); format: in vivo; settings: foliar, 200 ppm, wheat leaf disc preventative, compared to untreated control, read-out: control of Puccinia recondita f. sp. tritici
[8] = tested on: Magnaporthe grisea (Pyricularia oryzae); assay: whole plant or invertebrate; format: in vivo; settings: foliar, read-out: control of Magnaporthe grisea
[9] = tested on: Thanatephorus cucumeris (Rhizoctonia solani); assay: Thanatephorus cucumeris (Rhizoctonia solani)/Liquid Culture (Foot Rot, Damping-Off); format: cell-based; settings: liquid culture, compared to untreated control
Method: Mycelia fragments of a newly grown liquid culture of the fungus are directly mixed into nutrient broth (PDB potato dextrose broth). After placing a (DMSO) solution of the test compounds into a microtiter plate (96-well format), the nutrient broth containing the fungal material is added.

[10] = tested on: Mycosphaerella graminicola (Septoria tritici); assay: Mycosphaerella graminicola (Septoria tritici)/Liquid Culture (Septoria Blotch); format: cell-based; settings: Zymoseptoria tritici; 20 ppm; liquid culture; compared to untreated control
Procedure, shortened: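 Results given as % disease control: test compound in DMSO was placed in wells first, then potato dextrose broth carrying cryostored fungal conidia was added.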

[11] = tested on: Blumeria graminis f. sp. tritici (Erysiphe graminis f. sp. tritici); assay: Blumeria graminis f. sp. tritici/Wheat/Leaf Disc Preventative (Powdery Mildew on Wheat); format: in vivo; settings: foliar, wheat leaf disc preventative, compared to untreated control
Procedure, shortened: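 Preventative leaf-disc test: percent disease control versus untreated leaf segments read 6-8 days post-application. Compound spray applied to wheat cv. Kanzler segments on agar one day before shaking infected plants over them; incubation at 20° C and 60% rh, 24 h darkness then 12 h light/12 h dark cycles.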

Phakopsora pachyrhizi = assay: Phakopsora pachyrhizi/Soybean/Preventative (Soybean Rust); format: in vivo; settings: foliar, 288 h, 200 ppm, soybean leaf disc preventative, compared to untreated control, read-out: control of Phakopsora pachyrhizi

SMILES | inhibition of growth at 20 ppm [1] [%] | inhibition of growth at 20 ppm [2] [%] | pest or weed control at 200 ppm [3] [%] | inhibition of growth at 20 ppm [4] [%] | inhibition of growth at 20 ppm [5] [%] | pest or weed control at 200 ppm (Phytophthora infestans) [%] | pest or weed control at 200 ppm (Plasmopara viticola) [%] | pest or weed control at 200 ppm [6] [%] | pest or weed control at 200 ppm [7] [%] | pest or weed control at 200 ppm [8] [%] | inhibition of growth at 20 ppm [9] [%] | inhibition of growth at 20 ppm [10] [%] | pest or weed control at 200 ppm [11] [%] | pest or weed control at 200 ppm (Phakopsora pachyrhizi) [%] | melting point [°C]
CO/C=C(\Oc1cc(-n2ccc(C(C)C)n2)c(OC)cc1C)C(=O)OC [Compound E-31, methyl (Z)-2-[5-(3-isopropylpyrazol-1-yl)-4-methoxy-2-methyl-phenoxy]-3-methoxy-prop-2-enoate] | ≥ 80 | ≥ 80 | ≥ 80 | ≥ 80 | ≥ 80 | ≥ 80 | ≥ 80 | ≥ 80 | ≥ 80 | ≥ 80 | ≥ 80 | ≥ 80 |  |  | 
CO/C=C(\Oc1cc(C)cc(-n2ccc(C(C)C)n2)c1)C(=O)OC [Compound E-35, methyl (Z)-2-[3-(3-isopropylpyrazol-1-yl)-5-methyl-phenoxy]-3-methoxy-prop-2-enoate] | ≥ 80 | ≥ 80 |  | ≥ 80 | ≥ 80 | ≥ 80 | ≥ 80 | ≥ 80 | ≥ 80 | ≥ 80 | ≥ 80 | ≥ 80 | ≥ 80 | ≥ 50 | 
CO/C=C(\Oc1cc(-n2cc(C)cn2)ccc1C)C(=O)OC [Compound E-59, methyl (Z)-3-methoxy-2-[2-methyl-5-(4-methylpyrazol-1-yl)phenoxy]prop-2-enoate] | ≥ 80 | ≥ 80 | ≥ 80 | ≥ 80 | ≥ 80 | ≥ 80 | ≥ 80 |  | ≥ 80 | ≥ 80 | ≥ 80 | ≥ 80 | ≥ 80 | ≥ 50 | 
CCOc1cnn(-c2ccc(C)c(O/C(=C\OC)C(=O)OC)c2)c1 [Compound E-52, methyl (Z)-2-[5-(4-ethoxypyrazol-1-yl)-2-methyl-phenoxy]-3-methoxy-prop-2-enoate] | ≥ 80 | ≥ 80 |  | ≥ 80 | ≥ 80 | ≥ 80 | ≥ 80 |  | ≥ 80 | ≥ 80 | ≥ 80 | ≥ 80 |  | ≥ 50 | 
C=C(C)c1ccn(-c2ccc(C)c(O/C(=C\OC)C(=O)OC)c2)n1 [Compound E-65, methyl (Z)-2-[5-(3-isopropenylpyrazol-1-yl)-2-methyl-phenoxy]-3-methoxy-prop-2-enoate] | ≥ 80 | ≥ 80 | ≥ 80 | ≥ 80 | ≥ 80 |  | ≥ 80 | ≥ 80 | ≥ 80 | ≥ 80 | ≥ 80 | ≥ 80 |  |  | 80 to 84
C#Cc1cnn(-c2ccc(C)c(O/C(=C\OC)C(=O)OC)c2)c1 [Compound E-48, methyl (Z)-2-[5-(4-ethynylpyrazol-1-yl)-2-methyl-phenoxy]-3-methoxy-prop-2-enoate] | ≥ 80 | ≥ 80 | ≥ 80 | ≥ 80 | ≥ 80 | ≥ 80 | ≥ 80 | ≥ 80 | ≥ 80 |  | ≥ 80 | ≥ 80 | ≥ 80 |  | 
